# Test results as given in ChEMBL document CHEMBL1201862, “PubChem BioAssay data set” (2004).
#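 Growth conditions: 96-well plates. Treatment: test compound, 48 hours, 5 concentrations. Analysis: linear interpolation between bracketing concentrations; unreached endpoints set to highest concentration. GI50 marks 50% less growth.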 Active and inactive are the calls of the source. Cut-off read from the data, not from the text of the source: active = GI50 up to about 1.1 µM and inactive = higher.
# How the values were obtained:
# Assay in all cases: inhibition of tumour cell growth, NCI panel, 48 h
# 786-0 = tested on: 786-0
# A549 = tested on: A549
# ACHN = tested on: ACHN
# CAKI-1 = tested on: CAKI-1
# CCRF-CEM = tested on: CCRF-CEM
# DLD-1 = tested on: DLD-1
# DMS-114 = tested on: DMS-114
# EKVX = tested on: EKVX
# HCC 2998 = tested on: HCC 2998
# HCT-116 = tested on: HCT-116
# HCT-15 = tested on: HCT-15
# HL-60 = tested on: HL-60
# HOP-18 = tested on: HOP-18
# HOP-62 = tested on: HOP-62
# HOP-92 = tested on: HOP-92
# HT-29 = tested on: HT-29
# IGROV-1 = tested on: IGROV-1
# K562 = tested on: K562
# KM12 = tested on: KM12
# LOX IMVI = tested on: LOX IMVI
# LXFL 529 = tested on: LXFL 529
# M14 = tested on: M14
# M19-MEL = tested on: M19-MEL
# MOLT-4 = tested on: MOLT-4
# Malme-3M = tested on: Malme-3M
# NCI-H226 = tested on: NCI-H226
# NCI-H23 = tested on: NCI-H23
# NCI-H460 = tested on: NCI-H460
# NCI-H522 = tested on: NCI-H522
# OVCAR-3 = tested on: OVCAR-3
# OVCAR-4 = tested on: OVCAR-4
# OVCAR-5 = tested on: OVCAR-5
# OVCAR-8 = tested on: OVCAR-8
# RPMI-8226 = tested on: RPMI-8226
# RXF 393 = tested on: RXF 393
# SF-268 = tested on: SF-268
# SF-295 = tested on: SF-295
# SF-539 = tested on: SF-539
# SK-MEL-28 = tested on: SK-MEL-28
# SK-MEL-2 = tested on: SK-MEL-2
# SK-MEL-5 = tested on: SK-MEL-5
# SK-OV-3 = tested on: SK-OV-3
# SN12C = tested on: SN12C
# SNB-19 = tested on: SNB-19
# SNB-78 = tested on: SNB-78
# SR = tested on: SR
# SW-620 = tested on: SW-620
# TK-10 = tested on: TK-10
# U-251 = tested on: U-251
# UACC-257 = tested on: UACC-257
# UACC-62 = tested on: UACC-62
# UO-31 = tested on: UO-31
# XF498 = tested on: XF498
# A498 = tested on: A498
# COLO 205 = tested on: COLO 205
# DMS-273 = tested on: DMS-273
# KM-20L2 = tested on: KM-20L2
# SNB-75 = tested on: SNB-75
smiles,measurement,setting,value
COc1ccc(C(=O)C(c2ccc(OC)cc2)C2OC(=O)C(Cl)=C2Cl)cc1 (centres undefined),GI50,786-0,> 100 µM (inactive)
same,GI50,A549,> 100 µM (inactive)
same,GI50,ACHN,> 100 µM (inactive)
same,GI50,CAKI-1,> 100 µM (inactive)
same,GI50,CCRF-CEM,> 100 µM (inactive)
same,GI50,DLD-1,> 100 µM (inactive)
same,GI50,DMS-114,> 100 µM (inactive)
same,GI50,EKVX,> 100 µM (inactive)
same,GI50,HCC 2998,> 100 µM (inactive)
same,GI50,HCT-116,> 100 µM (inactive)
same,GI50,HCT-15,> 100 µM
same,GI50,HL-60,> 100 µM (inactive)
same,GI50,HOP-18,> 100 µM (inactive)
same,GI50,HOP-62,> 100 µM (inactive)
same,GI50,HOP-92,> 100 µM (inactive)
same,GI50,HT-29,> 100 µM (inactive)
same,GI50,IGROV-1,> 100 µM (inactive)
same,GI50,K562,> 100 µM (inactive)
same,GI50,KM12,> 100 µM (inactive)
same,GI50,LOX IMVI,> 100 µM (inactive)
same,GI50,LXFL 529,> 100 µM (inactive)
same,GI50,M14,> 100 µM (inactive)
same,GI50,M19-MEL,> 100 µM (inactive)
same,GI50,MOLT-4,> 100 µM (inactive)
same,GI50,Malme-3M,> 100 µM (inactive)
same,GI50,NCI-H226,> 100 µM (inactive)
same,GI50,NCI-H23,> 100 µM (inactive)
same,GI50,NCI-H460,> 100 µM (inactive)
same,GI50,NCI-H522,> 100 µM (inactive)
same,GI50,OVCAR-3,> 100 µM (inactive)
same,GI50,OVCAR-4,> 100 µM (inactive)
same,GI50,OVCAR-5,> 100 µM (inactive)
same,GI50,OVCAR-8,84.1 µM (inactive)
same,GI50,RPMI-8226,> 100 µM (inactive)
same,GI50,RXF 393,> 100 µM (inactive)
same,GI50,SF-268,> 100 µM (inactive)
same,GI50,SF-295,> 100 µM (inactive)
same,GI50,SF-539,> 100 µM (inactive)
same,GI50,SK-MEL-28,> 100 µM (inactive)
same,GI50,SK-MEL-2,> 100 µM (inactive)
same,GI50,SK-MEL-5,> 100 µM (inactive)
same,GI50,SK-OV-3,> 100 µM (inactive)
same,GI50,SN12C,> 100 µM (inactive)
same,GI50,SNB-19,> 100 µM (inactive)
same,GI50,SNB-78,> 100 µM (inactive)
same,GI50,SR,> 100 µM (inactive)
same,GI50,SW-620,> 100 µM (inactive)
same,GI50,TK-10,> 100 µM (inactive)
same,GI50,U-251,> 100 µM (inactive)
same,GI50,UACC-257,> 100 µM (inactive)
same,GI50,UACC-62,> 100 µM (inactive)
same,GI50,UO-31,> 100 µM (inactive)
same,GI50,XF498,> 100 µM (inactive)
C[C@H](C(=O)O)C(=O)NC(=O)N(Cc1ccccc1)N=O,GI50,786-0,> 100 µM (inactive)
same,GI50,A498,> 100 µM (inactive)
same,GI50,A549,> 100 µM (inactive)
same,GI50,ACHN,> 100 µM (inactive)
same,GI50,CAKI-1,> 100 µM (inactive)
same,GI50,CCRF-CEM,67.1 µM (inactive)
same,GI50,COLO 205,> 100 µM (inactive)
same,GI50,DLD-1,> 100 µM (inactive)
same,GI50,DMS-114,> 100 µM (inactive)
same,GI50,DMS-273,> 100 µM (inactive)
same,GI50,EKVX,> 100 µM (inactive)
same,GI50,HCC 2998,> 100 µM (inactive)
same,GI50,HCT-116,> 100 µM (inactive)
same,GI50,HCT-15,> 100 µM
same,GI50,HOP-18,0.0525 µM (active)
same,GI50,HOP-62,> 100 µM (inactive)
same,GI50,HT-29,> 100 µM (inactive)
same,GI50,IGROV-1,> 100 µM (inactive)
same,GI50,K562,88.3 µM (inactive)
same,GI50,KM-20L2,> 100 µM (inactive)
same,GI50,KM12,> 100 µM (inactive)
same,GI50,LOX IMVI,> 100 µM (inactive)
same,GI50,LXFL 529,> 100 µM (inactive)
same,GI50,M14,> 100 µM (inactive)
same,GI50,M19-MEL,> 100 µM (inactive)
same,GI50,MOLT-4,> 100 µM (inactive)
same,GI50,Malme-3M,> 100 µM (inactive)
same,GI50,NCI-H460,> 100 µM (inactive)
same,GI50,OVCAR-3,> 100 µM (inactive)
same,GI50,OVCAR-4,> 100 µM (inactive)
same,GI50,OVCAR-5,> 100 µM (inactive)
same,GI50,OVCAR-8,> 100 µM (inactive)
same,GI50,RPMI-8226,> 100 µM (inactive)
same,GI50,SF-268,> 100 µM (inactive)
same,GI50,SF-295,> 100 µM (inactive)
same,GI50,SF-539,> 100 µM (inactive)
same,GI50,SK-MEL-28,> 100 µM (inactive)
same,GI50,SK-MEL-2,> 100 µM (inactive)
same,GI50,SK-MEL-5,> 100 µM (inactive)
same,GI50,SK-OV-3,> 100 µM (inactive)
same,GI50,SN12C,> 100 µM (inactive)
same,GI50,SNB-19,> 100 µM (inactive)
same,GI50,SNB-75,98.4 µM (inactive)
same,GI50,SNB-78,> 100 µM (inactive)
same,GI50,SW-620,> 100 µM (inactive)
same,GI50,TK-10,> 100 µM (inactive)
same,GI50,U-251,> 100 µM (inactive)
same,GI50,UACC-257,> 100 µM (inactive)
same,GI50,UACC-62,> 100 µM (inactive)
same,GI50,UO-31,> 100 µM (inactive)
same,GI50,XF498,> 100 µM (inactive)
